This is an account of results in US11160806B2, “Salt of N-(2,6-diethylphenyl)-8-({4-[4-(dimethylamino) piperidin-1-yl]-2-methoxyphenyl}amino)-1-methyl-4,5-dihydro-1H-pyrazolo[4,3-h]quinazoline-3-carboxamide, its preparation, and formulations containing it” (LES LABORATOIRES SERVIER, priority 2017, dated 2021).

A short description of data set [1]: Preliminary solubility test, in situ salt formation from the amorphous base in water at room temperature. The class given is physicochemical.
The target of data set [2] is T1, MPS1 (Monopolar Spindle 1) kinase, also known as TTK (Homo sapiens, UniProt P33981).
T1 sequence (P33981 1-857): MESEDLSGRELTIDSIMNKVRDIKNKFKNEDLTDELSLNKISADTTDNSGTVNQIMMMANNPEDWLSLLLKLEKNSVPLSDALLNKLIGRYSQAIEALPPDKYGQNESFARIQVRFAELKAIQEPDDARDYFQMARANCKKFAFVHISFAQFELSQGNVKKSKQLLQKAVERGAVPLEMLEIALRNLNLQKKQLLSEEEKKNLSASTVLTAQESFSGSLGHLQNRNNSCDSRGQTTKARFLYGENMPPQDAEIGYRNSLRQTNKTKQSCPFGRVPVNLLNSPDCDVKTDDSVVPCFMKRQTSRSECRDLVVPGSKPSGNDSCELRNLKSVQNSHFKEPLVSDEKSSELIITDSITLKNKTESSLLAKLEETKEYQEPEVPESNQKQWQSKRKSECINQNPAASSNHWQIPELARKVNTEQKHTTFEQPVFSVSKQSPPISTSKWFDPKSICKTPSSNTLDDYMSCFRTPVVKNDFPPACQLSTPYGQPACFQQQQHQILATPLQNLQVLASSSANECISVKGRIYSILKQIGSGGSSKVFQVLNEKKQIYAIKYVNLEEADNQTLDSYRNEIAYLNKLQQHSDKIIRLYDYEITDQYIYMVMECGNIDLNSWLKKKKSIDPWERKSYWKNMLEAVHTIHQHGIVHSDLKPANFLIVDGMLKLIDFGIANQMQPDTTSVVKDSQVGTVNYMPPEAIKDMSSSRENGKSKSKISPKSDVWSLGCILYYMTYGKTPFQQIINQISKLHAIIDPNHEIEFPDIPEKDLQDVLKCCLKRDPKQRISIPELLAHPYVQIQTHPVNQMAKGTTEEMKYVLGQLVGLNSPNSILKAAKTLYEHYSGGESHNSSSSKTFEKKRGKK
Particulars: cited from earlier work.

A short description of data set [3]: Solubility of phosphate salt crystalline form I in water (WFI) or NaCl 0.9% at room temperature, HPLC. The class given is physicochemical. Particulars: for Solubility 1 hour / Solubility 24 hours: room temperature. Here is the method:
Testing conditions: about 730 mg of testing compound were suspended in 4 ml of WFI (water for injection) or Saline (0.9% NaCl) to test a target solubility of 150 mg/ml as free base. The suspensions were magnetically stirred for 24 hours at room temperature and protected from light in amber glass vial. Testing compound concentrations were determined after 1 and 24 hours.

Data set [4] in a line: Hygroscopicity by Dynamic Vapour Sorption. Type of data set: physicochemical. The protocol: The compound to be tested is submitted to hygroscopicity test by means of a Dynamic Vapour Sorption apparatus (DVS 1000—Surface Measurement Systems).
The apparatus is briefly defined as a “controlled atmosphere microbalance” where the weighed sample is exposed to variations of the relative humidity (RH) at a constant and controlled temperature. An exactly weighed amount of the product (generally 5-10 mg) was analysed.

Data set [5] is described as follows: Stability over time under denaturing conditions (40° C./75% RH), chemical purity. The class given is physicochemical. Here is the method: The compound of formula (II) according to the invention has a good stability over time under denaturing conditions (40° C./75% Relative Humidity (RH)): […]
Data set [6] is described as follows: Purity and stability under long term conditions. The class given is physicochemical. An excerpt:
Purity and stability of N-(2,6-diethylphenyl)-8-({4-[4-(dimethylamino) piperidin-1-yl]-2-methoxy phenyl}amino)-1-methyl-4,5-dihydro-1H-pyrazolo[4,3-h]quinazoline-3-carboxamide phosphate Form I have been tested under long term conditions as follows: […]

In the case of `CCc1cccc(CC)c1NC(=O)c1nn(C)c2c1CCc1cnc(Nc3ccc(N4CCC(N(C)C)CC4)cc3OC)nc1-2` [Free Base, N-(2,6-diethylphenyl)-8-({4-[4-(dimethylamino)piperidin-1-yl]-2-methoxyphenyl}amino)-1-methyl-4,5-dihydro-1H-pyrazolo[4,3-h]quinazoline-3-carboxamide], the “Solubility 1 hour” value in data set [1] (water, 1 hour) is given as less than 0.001 mg/ml as free base. In data set [1] (water, 24 hours), the “Solubility 24 hours” value was less than 0.001 mg/ml as free base. Besides, in data set [2], the “Ability to inhibit MPS1 kinase” value is recorded as “has the ability to inhibit MPS1”. Moreover, in data set [3] (water), the “Solubility 1 hour” value is listed as less than 0.001 mg/ml as free base and the “Solubility 24 hours” value is less than 0.001 mg/ml as free base. In data set [4], the Water uptake at 30% RH stood at 0.4%, the Water uptake at 60% RH worked out at 1% and the Water uptake at 90% RH came out at 2.8%.

For `CCc1cccc(CC)c1NC(=O)c1nn(C)c2c1CCc1cnc(Nc3ccc(N4CCC(N(C)C)CC4)cc3OC)nc1-2.O=P(O)(O)O` [Phosphate salt, N-(2,6-diethylphenyl)-8-({4-[4-(dimethylamino)piperidin-1-yl]-2-methoxyphenyl}amino)-1-methyl-4,5-dihydro-1H-pyrazolo[4,3-h]quinazoline-3-carboxamide phosphate], in data set [1], the “Improvement of solubility versus the free base” value is listed as “at least 24 000 times”. Also, in data set [1], the “Improvement of solubility versus the hydrochloride salt” value is given as “at least 25 times”. Besides, the Chemical purity is given as 99.4% in data set [5] (1 month 40° C./75% RH Open bottle) and 99.5% in data set [5] (t0). Also, the Appearance entry in data set [6] (1 month 5° C.), in data set [6] (1 month 25° C./60% RH), in data set [6] (3 months 5° C.), in data set [6] (3 months 25° C./60% RH), in data set [6] (9 months 5° C.) and in data set [6] (12 months 5° C.) was “Yellow” throughout. In addition, the Appearance result in data set [6] (24 months 5° C.) and in data set [6] (t0) was “Yellow” each time. For the same compound, the Drug substance in data set [6] (1 month 5° C.) is on record as 99.94%; in data set [6] (1 month 25° C./60% RH), 99.93%; in data set [6] (3 months 5° C.) it was 99.93%; in data set [6] (3 months 25° C./60% RH) it was 99.93%; in data set [6] (9 months 5° C.), 99.93%; in data set [6] (12 months 5° C.), 99.94%. For the same compound, the Drug substance was determined as 99.91% in data set [6] (24 months 5° C.) and 99.94% in data set [6] (t0). The “Total amount of impurities” value in data set [6] (1 month 5° C.) was found to be 0.06%; in data set [6] (1 month 25° C./60% RH), 0.07%; in data set [6] (3 months 5° C.), 0.07%; in data set [6] (3 months 25° C./60% RH), 0.07%; in data set [6] (9 months 5° C.), 0.07%; in data set [6] (12 months 5° C.), 0.06%. Also, the “Total amount of impurities” value in data set [6] (24 months 5° C.) turned out to be 0.09%; in data set [6] (t0) it was 0.06%. Further, the “Crystalline Form (XRD assessment)” value in data set [6] (12 months 5° C.), in data set [6] (24 months 5° C.) and in data set [6] (t0) was “Form I” in each case. For the same compound, the “Time over which the substance is stable” value in data set [6] (long term conditions) is given as no less than 24 months. In addition, the “Solubility 1 hour” value is listed as 81.0 mg/ml as free base in data set [3] (NaCl 0.9%) and 87.5 mg/ml as free base in data set [3] (water). Further, the results for the “Solubility 24 hours” value in data set [3] (NaCl 0.9%) and in data set [3] (water) were 133.6 mg/ml as free base and 130.2 mg/ml as free base, respectively. The “Solubility at room temperature” value in data set [3] (both in water and in NaCl 0.9%) is recorded as “at least 130 mg/ml expressed as free base”. For the same compound, the Water uptake at 30% RH in data set [4] amounted to 0.4%. This compound registered a Water uptake at 60% RH in data set [4] of 1%. The same compound had a Water uptake at 90% RH in data set [4] of 2.5%.
